According to ChEMBL document CHEMBL1139308, “Identification and synthesis of 2,7-diamino-thiazolo[5,4-d]pyrimidine derivatives as TRPV1 antagonists” (Bioorg Med Chem Lett, 2009):
Converted amounts (≈) assume the structure as drawn.

Columns and labels:
[1] = target: Transient receptor potential cation channel subfamily V member 1 (Homo sapiens, UniProt Q8NER1); experiment: Antagonist activity at human TRPV1 expressed in HEK293 cells assessed as inhibition of capsaicin-induced calcium flux; type: functional, cell-based
[2] = target: Transient receptor potential cation channel subfamily V member 1 (Rattus norvegicus, UniProt O35433); experiment: Antagonist activity at rat TRPV1 expressed in HEK293 cells assessed as inhibition of capsaicin-induced calcium flux; type: functional, cell-based
[3] = Clearance in fasted Sprague-Dawley rat at 0.5 mg/kg, iv and 2 mg/kg, po; type: ADME, organism-based; details: in vivo
[4] = Volume of distribution at steady state in fasted Sprague-Dawley rat at 0.5 mg/kg, iv and 2 mg/kg, po; type: ADME, organism-based; details: in vivo, read-out: Vdss
[5] = Half life in fasted Sprague-Dawley rat at 0.5 mg/kg, iv and 2 mg/kg, po; type: ADME, organism-based; details: in vivo
[6] = Aqueous solubility in fasted-state simulated intestinal fluid at pH 6.8 after 3 days by HPLC; type: physicochemical
[7] = Aqueous solubility in simulated gastric fluid at pH 1.2 after 3 days by HPLC; type: physicochemical
[8] = Cmax in fasted Sprague-Dawley rat at 2 mg/kg, po; type: ADME, organism-based; set-up: dose 2 mg/kg, route oral; details: in vivo
[9] = Tmax in fasted Sprague-Dawley rat at 2 mg/kg, po; type: ADME, organism-based; set-up: dose 2 mg/kg, route oral; details: in vivo
[10] = system: Rattus norvegicus; experiment: AUC (infinity) in fasted Sprague-Dawley rat at 2 mg/kg, po; type: ADME, organism-based, Plasma; set-up: time infinity, dose 2 mg/kg, route oral; details: in vivo
[11] = Bioavailability in fasted Sprague-Dawley rat at 0.5 mg/kg, iv and 2 mg/kg, po; type: ADME, organism-based; details: in vivo

Sequence of Transient receptor potential cation channel subfamily V member 1 (Homo sapiens, UniProt Q8NER1) (Q8NER1 whole entry): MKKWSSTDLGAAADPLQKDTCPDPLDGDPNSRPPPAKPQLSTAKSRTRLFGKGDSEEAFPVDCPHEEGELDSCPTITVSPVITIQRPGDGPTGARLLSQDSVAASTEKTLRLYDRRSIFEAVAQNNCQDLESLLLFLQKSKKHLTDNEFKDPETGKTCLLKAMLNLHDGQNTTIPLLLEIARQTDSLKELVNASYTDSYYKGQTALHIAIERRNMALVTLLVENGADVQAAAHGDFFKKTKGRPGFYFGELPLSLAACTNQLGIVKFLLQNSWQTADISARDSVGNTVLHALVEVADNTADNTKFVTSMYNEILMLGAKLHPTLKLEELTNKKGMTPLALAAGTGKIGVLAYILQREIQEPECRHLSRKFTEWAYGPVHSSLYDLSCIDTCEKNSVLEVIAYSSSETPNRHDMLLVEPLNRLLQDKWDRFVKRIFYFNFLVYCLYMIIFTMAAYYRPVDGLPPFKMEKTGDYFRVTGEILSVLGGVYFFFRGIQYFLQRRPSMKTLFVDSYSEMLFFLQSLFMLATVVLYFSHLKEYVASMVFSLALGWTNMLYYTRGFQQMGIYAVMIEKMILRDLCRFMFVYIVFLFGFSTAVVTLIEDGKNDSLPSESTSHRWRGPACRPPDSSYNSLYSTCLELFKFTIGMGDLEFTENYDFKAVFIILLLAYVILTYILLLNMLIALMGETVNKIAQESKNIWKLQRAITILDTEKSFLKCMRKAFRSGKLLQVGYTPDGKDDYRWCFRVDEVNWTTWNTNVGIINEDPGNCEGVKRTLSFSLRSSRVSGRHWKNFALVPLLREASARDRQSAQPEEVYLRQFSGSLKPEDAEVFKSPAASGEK
Sequence of Transient receptor potential cation channel subfamily V member 1 (Rattus norvegicus, UniProt O35433) (O35433 whole entry): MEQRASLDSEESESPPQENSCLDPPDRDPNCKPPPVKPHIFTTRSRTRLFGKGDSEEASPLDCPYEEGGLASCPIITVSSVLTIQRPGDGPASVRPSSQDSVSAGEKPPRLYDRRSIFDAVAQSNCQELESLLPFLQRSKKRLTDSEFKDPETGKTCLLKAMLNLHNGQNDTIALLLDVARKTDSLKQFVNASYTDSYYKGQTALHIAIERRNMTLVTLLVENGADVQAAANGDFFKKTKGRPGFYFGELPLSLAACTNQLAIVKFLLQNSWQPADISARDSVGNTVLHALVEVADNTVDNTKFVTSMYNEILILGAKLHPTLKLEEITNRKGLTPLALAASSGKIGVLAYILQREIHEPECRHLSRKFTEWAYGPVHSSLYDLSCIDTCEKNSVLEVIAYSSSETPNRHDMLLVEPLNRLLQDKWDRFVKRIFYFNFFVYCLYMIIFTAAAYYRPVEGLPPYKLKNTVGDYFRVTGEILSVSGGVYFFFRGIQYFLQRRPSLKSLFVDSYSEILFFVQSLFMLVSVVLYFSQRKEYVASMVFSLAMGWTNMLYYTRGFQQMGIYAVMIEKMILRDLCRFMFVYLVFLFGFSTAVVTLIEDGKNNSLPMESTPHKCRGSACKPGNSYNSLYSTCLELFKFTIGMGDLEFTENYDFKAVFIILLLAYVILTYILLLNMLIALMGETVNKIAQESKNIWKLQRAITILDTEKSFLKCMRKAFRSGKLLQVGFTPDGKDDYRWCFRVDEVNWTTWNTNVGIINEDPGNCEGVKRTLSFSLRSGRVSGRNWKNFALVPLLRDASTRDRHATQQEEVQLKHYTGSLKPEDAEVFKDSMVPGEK

IC50 [1]	IC50 [2]	SMILES	further results
	0.5 nM	O=S(=O)(c1ccc(Nc2ncnc3sc(Nc4c(Cl)cccc4Cl)nc23)cc1)N1CCCC1	
5 nM	3 nM	CS(=O)(=O)c1ccc(Nc2ncnc3sc(Nc4c(Cl)cccc4Cl)nc23)cc1	clearance [3]: 60 mL/min/kg; Vd [4]: 2.2 L/kg; half-life [5]: 1.2 h
> 5000 nM	> 5000 nM	O=C(c1ccc(Nc2ncnc3sc(Nc4c(Cl)cccc4Cl)nc23)cc1)N1CCCC1	
> 5000 nM	> 5000 nM	O=C(O)c1ccc(Nc2ncnc3sc(Nc4c(Cl)cccc4Cl)nc23)cc1	
176 nM	170 nM	Clc1cccc(Cl)c1Nc1nc2c(Nc3ccccc3)ncnc2s1	
59 nM	25 nM	FC(F)(F)c1ccc(Nc2nc(N3CCC3)nc3sc(Nc4c(Cl)cccc4Cl)nc23)cc1	
21 nM	9 nM	FC(F)(F)c1ccc(Nc2ncnc3sc(Nc4c(Cl)cccc4Cl)nc23)cc1Cl	
206 nM	192 nM	FC(F)(F)c1cccc(Nc2ncnc3sc(Nc4c(Cl)cccc4Cl)nc23)c1	
> 5000 nM	590 nM	NS(=O)(=O)c1ccc(Nc2ncnc3sc(Nc4c(Cl)cccc4Cl)nc23)cc1	

More lines, now with the values behind:

SMILES	IC50 [1]	IC50 [2]	further results
FC(F)(F)c1ccc(Nc2nc3c(Nc4ccc(C(F)(F)F)cc4)ncnc3s2)cc1	> 5000 nM		
FC(F)(F)c1ccc(Nc2cccc3sc(Nc4c(Cl)cccc4Cl)nc23)cc1	> 5000 nM	> 5000 nM	
CCN(CC)c1nc(Nc2ccc(C(F)(F)F)cc2)c2nc(Nc3c(Cl)cccc3Cl)sc2n1	48 nM	34 nM	
CSc1ccccc1Nc1nc2c(Nc3ccc(C(F)(F)F)cc3)ncnc2s1	43 nM	26 nM	
FC(F)(F)c1ccc(Nc2ncnc3sc(Nc4ccccc4Cl)nc23)cc1	64 nM	32 nM	
FC(F)(F)c1ccc(Nc2nc(NCCN3CCOCC3)nc3sc(Nc4c(Cl)cccc4Cl)nc23)cc1	39 nM	11 nM	solubility at 72 h [6]: 10 µg/mL (≈ 17.1 µM); solubility at 72 h [7]: 116 µg/mL (≈ 198 µM); clearance [3]: 30 mL/min/kg; Vd [4]: 2.8 L/kg; half-life [5]: 1.8 h; Cmax [8]: 70 nM; Tmax [9]: 2 h; AUC [10]: 196 ng·h/mL; bioavailability [11]: 17%
CC(C)Nc1nc(Nc2ccc(C(F)(F)F)cc2)c2nc(Nc3c(Cl)cccc3Cl)sc2n1	13 nM	9 nM	
O=C(O)c1cc(Cl)c(Nc2nc3c(Nc4ccc(C(F)(F)F)cc4)ncnc3s2)c(Cl)c1	> 5000 nM	> 5000 nM	
FC(F)(F)c1ccccc1Nc1ncnc2sc(Nc3c(Cl)cccc3Cl)nc12	> 5000 nM	> 5000 nM	
CC(C)(C)c1ccc(Oc2ncnc3sc(Nc4c(Cl)cccc4Cl)nc23)cc1	> 5000 nM	> 5000 nM	
FC(F)(F)c1ccc(Nc2ncnc3sc(Nc4ncccc4C(F)(F)F)nc23)cc1	> 5000 nM	> 5000 nM	
NC(=O)c1cc(Cl)c(Nc2nc3c(Nc4ccc(C(F)(F)F)cc4)ncnc3s2)c(Cl)c1	69 nM	57 nM	
N#Cc1cc(Cl)c(Nc2nc3c(Nc4ccc(C(F)(F)F)cc4)ncnc3s2)c(Cl)c1	95 nM	53 nM	
CSc1nc(Nc2ccc(C(F)(F)F)cc2)c2nc(Nc3c(Cl)cccc3Cl)sc2n1	224 nM	113 nM	
FC(F)(F)c1ccc(Nc2nc(N3CCOCC3)nc3sc(Nc4c(Cl)cccc4Cl)nc23)cc1	30 nM	16 nM	
OCc1cc(Cl)c(Nc2nc3c(Nc4ccc(C(F)(F)F)cc4)ncnc3s2)c(Cl)c1		0.5 nM	clearance [3]: 23.3 mL/min/kg; Vd [4]: 2.9 L/kg; half-life [5]: 1.8 h; Cmax [8]: 200 nM; Tmax [9]: 4 h; AUC [10]: 638 ng·h/mL; bioavailability [11]: 45%
CS(=O)(=O)c1ccccc1Nc1nc2c(Nc3ccc(C(F)(F)F)cc3)ncnc2s1	234 nM	221 nM	
FC(F)(F)c1ccc(Nc2nc(NCC3CC3)nc3sc(Nc4c(Cl)cccc4Cl)nc23)cc1	3 nM	3 nM	
